From US20230321024A1, “METHODS OF TREATING VISUAL DISORDERS USING DAILY LOW DOSING OF A RETINOID COMPOUND” (ELUMINEX BIOSCIENCES (SUZHOU) LIMITED, priority 2020, published 2023)

Tests used:
[1] = Human pharmacokinetics of circulating 9-cis-retinol in blood from completed clinical trials after oral 9-cis-retinyl acetate; assay type: in vivo
Procedure: FIG. 2 plots human pharmacokinetic (PK) data for the circulating levels of 9-cis-retinol in the blood from completed clinical trials where 9-cis-retinyl acetate was administered orally.
9-cis-retinyl acetate is the acetate ester of 9-cis-retinol. Acetate esters like 9-cis-retinyl acetate are generally short-lived because they are readily hydrolyzed either at physiological pH or by esterases in the blood and other parts of the body.
Thus, further discussion focuses on 9-cis-retinol.
Collated in FIG. 2 are human PK data that show a Cmax between 4 and 7 hours for 9-cis-retinol independent of initial dose administered. A low steady level of 9-cis-retinol is achieved in ˜24 hours. […] The circulating 9-cis-retinol is observed at similar levels from about 24 hours through at least 700 hours after a single dose.
(§1) Clearance from the blood is rapid above ˜8 nM, but quickly drops to zero or near zero below that level. Steady state levels (from ˜24 hrs post dose) are 4.57 nM (10 mg/m^2 dose, 83 samples), 8.32 nM (40 mg/m^2 dose, 149 samples), and 7.46 nM (5 to 60 mg/m^2, 629 samples).

[2] = Population PK model (2 compartment, concentration-dependent clearance) for 9-cis-retinol built on the observed clinical data; settings: human blood, FIG. 4
Excerpt: FIG. 3 schematically illustrates a 2 compartment PK model used to describe the observed clinical data.
From the observed PK data analyzed, a population PK model for levels of 9-cis-retinol was built. Based on the observed clinical data, a 2 compartment PK model was constructed (FIG. 3). This kinetic model for 9-cis-retinol includes a recirculation feature that maintains 9-cis-retinol levels for long periods of time. Two features of this model include apparent concentration-dependent clearance of 9-cis-retinol from the blood, and apparent zero or close to zero clearance at low concentrations. This accounts for long recirculating levels of 9-cis-retinol, seen in samples consistently at 100 hours, 300 hours and 700 hours post last dose administered.
as §1

Row | Steady state levels (from ~24 hrs post dose) ([1]; 10 mg/m^2 dose, 83 samples) | Steady state levels (from ~24 hrs post dose) ([1]; 40 mg/m^2 dose, 149 samples) | Steady state levels (from ~24 hrs post dose) ([1]; 5 to 60 mg/m^2, 629 samples) | Time through which circulating 9-cis-retinol is observed at similar levels ([1]; human, in vivo) | Cmax (time of) for 9-cis-retinol ([1]; human, in vivo, po) | Time at which a low steady level of 9-cis-retinol is achieved ([1]; human, in vivo, po) | Concentration above which clearance from the blood is rapid (drops to zero or near zero below) [2] | Compound | Persistence of 9-cis-retinyl acetate in human blood samples following oral dosing ([1]; human, in vivo, po)
1 | – | – | – | – | – | – | – | CC(=O)OC/C=C(C)/C=C/C=C(C)\C=C\C1=C(C)CCCC1(C)C [9-cis-retinyl acetate, (2E,4E,6Z,8E)-3,7-dimethyl-9-(2,6,6-trimethylcyclohex-1-en-1-yl)nona-2,4,6,8-tetraen-1-yl acetate] | extremely short lived and rapidly hydrolyzed to 9-cis-retinol
2 | 4.57 nM | 8.32 nM | 7.46 nM | at least 700 hours | 4 to 7 h | about 24 hours | ~8 nM | CC1=C(/C=C/C(C)=C\C=C\C(C)=C\CO)C(C)(C)CCC1 [9-cis-retinol] | –
